Source: paper PMC10604444, “Extra-Synaptic GABAA Receptor Potentiation and Neurosteroid-Induced Learning Deficits Are Inhibited by GR3027, a GABAA Modulating Steroid Antagonist” (Biomolecules, 2023)

Molecular target: T1, human α1β2γ2L GABAA receptors expressed in HEK-293 cells (Homo sapiens, UniProt P14867+P47870)
T1 construct: The coding regions of the human GABAA receptor subunits were then amplified by PCR; expressed in transfected cells; host or cells: HEK-293 (permanently transfected, pcDNA3.1 vectors, CMV promoter)
T1 sequence (P14867 28-456): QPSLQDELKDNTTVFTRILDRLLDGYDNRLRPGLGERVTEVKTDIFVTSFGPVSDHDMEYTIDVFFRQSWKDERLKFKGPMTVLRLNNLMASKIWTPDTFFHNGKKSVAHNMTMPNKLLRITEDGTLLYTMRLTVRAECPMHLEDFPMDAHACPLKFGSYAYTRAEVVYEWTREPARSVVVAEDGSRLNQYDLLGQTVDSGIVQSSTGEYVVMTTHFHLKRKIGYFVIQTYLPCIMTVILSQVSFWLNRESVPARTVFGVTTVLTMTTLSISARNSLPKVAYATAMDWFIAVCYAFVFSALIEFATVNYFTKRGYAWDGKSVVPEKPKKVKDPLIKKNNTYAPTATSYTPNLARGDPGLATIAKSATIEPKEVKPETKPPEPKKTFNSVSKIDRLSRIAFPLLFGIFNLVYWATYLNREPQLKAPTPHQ
T1 sequence (P47870 25-512 limits assumed): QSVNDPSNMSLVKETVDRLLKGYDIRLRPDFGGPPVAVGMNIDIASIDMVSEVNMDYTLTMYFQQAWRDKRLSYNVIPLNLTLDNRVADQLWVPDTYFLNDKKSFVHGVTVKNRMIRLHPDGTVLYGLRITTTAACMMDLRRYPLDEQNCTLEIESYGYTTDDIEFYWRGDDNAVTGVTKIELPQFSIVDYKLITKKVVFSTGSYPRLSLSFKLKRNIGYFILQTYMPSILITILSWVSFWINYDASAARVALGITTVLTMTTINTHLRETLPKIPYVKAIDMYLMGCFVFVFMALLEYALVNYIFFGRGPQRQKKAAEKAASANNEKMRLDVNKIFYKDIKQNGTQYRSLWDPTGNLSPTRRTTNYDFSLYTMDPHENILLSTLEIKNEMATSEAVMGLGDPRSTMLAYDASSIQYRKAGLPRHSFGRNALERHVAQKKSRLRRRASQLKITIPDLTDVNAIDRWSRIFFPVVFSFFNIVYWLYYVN
T1 sequence (P18507 40-475 partner): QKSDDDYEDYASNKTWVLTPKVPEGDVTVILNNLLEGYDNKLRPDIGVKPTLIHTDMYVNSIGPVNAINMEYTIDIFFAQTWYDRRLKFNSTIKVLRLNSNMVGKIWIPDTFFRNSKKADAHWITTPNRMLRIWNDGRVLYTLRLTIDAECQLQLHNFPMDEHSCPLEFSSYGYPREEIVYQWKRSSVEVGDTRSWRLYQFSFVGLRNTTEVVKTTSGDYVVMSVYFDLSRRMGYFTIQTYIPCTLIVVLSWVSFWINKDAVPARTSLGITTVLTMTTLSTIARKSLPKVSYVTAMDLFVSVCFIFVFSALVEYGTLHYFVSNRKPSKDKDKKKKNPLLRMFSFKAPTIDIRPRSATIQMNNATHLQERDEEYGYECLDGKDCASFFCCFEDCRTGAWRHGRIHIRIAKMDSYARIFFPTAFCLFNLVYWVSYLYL
Assay: Whole-cell patch clamp of GABA/THDOC-evoked currents, synaptic protocol (Dynaflow)
Format: cell-based
Conditions: for Reduction of AUC of THDOC-induced GABA response: n = 8, p ≤ 0.05
Source text: Wild-type HEK-293 cells (passage 4, originating from Pasteur Institute, Paris, France) were permanently transfected with vectors including the human CMV promoter for the constitutive expression of the human α5, β3, and γ2L GABAA receptor subunits (α5β3γ2L) or the human α1, β2, and γ2L GABAA receptor subunits (α1β2γ2L). The production of the plasmids used in the sub-cloning of the different subunits is published in Rahman et al..
The electrophysiological recordings from HEK-293 cells were performed with the whole-cell voltage clamp technique, at room temperature (21–23 °C). After compensation for liquid junction potential, a steady holding potential of −17 mV was used in all experiments. Patch pipettes were pulled from borosilicate glass (Bergman Labora AB, Danderyd, Sweden) and polished to a resistance of 2–5 MΩ when filled with intracellular solution and immersed in a bath (extracellular) solution (for solutions, see below). The pipette tips were filled by immersion in standard intracellular solution and subsequent back-filling with intracellular solution. The recordings were made using an Axopatch 200B amplifier and a Digidata 1322A (Axon Instruments, Foster City, CA, USA) controlled via a Pentium processor-based personal computer. Data were acquired using the pCLAMP software sampled at 10 kHz, filtered at 2–10 kHz, and analyzed with Clampfit (versions 9.0, both from Axon Instruments, Foster City, CA, USA). A series resistance between the pipette and cell membrane not higher than 20 MΩ was accepted. No series resistance compensation was used. The stability of series resistance was monitored repeatedly from the time course of capacitative transients during the experiments. The measured liquid junction potential between extracellular and intracellular solutions was subtracted from all data presented, as previously described. All experiments were performed at room temperature (21–23 °C).
In all electrophysiological experiments, tetrahydro-deoxycorticosterone (THDOC) was used as a positive GABAA receptor steroid modulator (PAM) to mimic the effect of AP on central GABAA channels. […] THDOC (Sigma Chemical Co., St. Louis, MO, USA) and GR3027 (3α-ethynyl, 3β-hydroxyl, 5α-androstan-17-oxime, golexanolone, Umecrine Cognition AB, Stockholm, Sweden) were dissolved in dimethyl sulfoxide (DMSO) using ultrasound, for the preparation of solutions containing a final DMSO concentration of 0.1%. GR3027 was discovered within a series of molecules developed and patented by T. Bäckström and G. Ragagnin, (patent WO 2008/063128). All solutions were complemented with DMSO to achieve the same final concentration as in the steroid-containing test solution. GABA (Sigma Chemical Co., St. Louis, MO, USA) was first prepared as a stock solution (dissolved in EC with ultrasonic treatment) to the desired concentrations, with the corresponding final concentrations of test solutions (30 µM and 0.3 µM; see protocols below). GABA was added to the experimental solution without a change in osmolarity.
The experimental protocols were designed to mimic the physiological conditions of the tonic (extra-synaptic) and phasic (synaptic) activation of GABAA receptors observed in central neurons, depending on the subunit compositions, respectively. GABA-evoked currents in HEK-293 cells expressing extra-synaptic (α5β3γ2L) or synaptic (α1β2γ2L) types of GABAA receptors were studied using the conventional whole-cell patch clamp technique. To mimic the physiological GABA exposure, the HEK-293 cells expressing α1β2γ2L GABAA receptors were exposed to short applications (40 ms) of 30 µM GABA, whereas HEK-293 cells expressing α5β3γ2L GABAA receptors were exposed to prolonged applications (6 s) of 0.3 µM GABA, either in the absence or presence of THDOC and/or GR3027.

## C#C[C@]1(O)CC[C@@]2(C)[C@@H](CC[C@@H]3[C@@H]2CC[C@]2(C)/C(=N/O)CC[C@@H]32)C1 [GR3027, 3α-ethynyl-3β-hydroxyl-5α-androstan-17-oxime]
1 µM GR3027 + 200 nM THDOC + 30 µM GABA (40 ms)
  Reduction of AUC of THDOC-induced GABA response: −11.6 ± 3.1
1 µM GR3027 + 30 µM GABA, no THDOC, NS, n = 21
  Change of AUC of GABA-mediated current, GR3027 alone: –3.1 ± 1.7%
3 µM GR3027 + 200 nM THDOC + 30 µM GABA (40 ms)
  Reduction of AUC of THDOC-induced GABA response: −22.9 ± 2.8
3 µM GR3027, 200 nM THDOC, absence of GABA, n = 7, p ≤ 0.05
  Decrease in THDOC-mediated baseline holding current shift: −38.1 ± 7.6%
GR3027 alone, no THDOC
  Effect on baseline holding current or 30 µM GABA-mediated currents, GR3027 alone: No difference
GR3027 below 1 µM (tested from 0.1 µM), 200 nM THDOC + 30 µM GABA
  Effect on THDOC-induced GABA currents at lower concentrations: no reduction
